Literature values in patent publication US9125900B2 (priority 2005, dated 2015).
Read-outs that look alike come from different tables or passages of the source.

Assays:
respiratory neurons [1] = settings: for morphine-induced suppression of respiratory neuronal activity: anesthetized rats
respiratory neurons [2] = system: respiratory neurons
5-HT4a receptor isoform = 5-HT4a receptor isoform (Homo sapiens, UniProt Q13639)
5-HT7 receptor = 5-HT7 receptor (Homo sapiens, UniProt P34969)
5-HT7 receptor, sequence (P34969 whole entry): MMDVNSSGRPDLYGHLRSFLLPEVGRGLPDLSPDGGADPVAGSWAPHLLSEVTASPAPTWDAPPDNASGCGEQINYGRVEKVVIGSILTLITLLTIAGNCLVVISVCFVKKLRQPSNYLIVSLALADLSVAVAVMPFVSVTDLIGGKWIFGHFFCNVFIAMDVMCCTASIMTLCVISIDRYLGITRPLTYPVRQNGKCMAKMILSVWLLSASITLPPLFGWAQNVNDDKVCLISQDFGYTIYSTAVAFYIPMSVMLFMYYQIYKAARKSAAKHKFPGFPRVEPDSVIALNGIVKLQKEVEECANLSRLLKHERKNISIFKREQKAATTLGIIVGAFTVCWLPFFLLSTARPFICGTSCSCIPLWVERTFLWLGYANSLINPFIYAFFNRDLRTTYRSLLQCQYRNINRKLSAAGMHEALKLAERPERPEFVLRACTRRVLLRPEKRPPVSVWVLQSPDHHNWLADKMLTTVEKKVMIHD

5-HT4a receptor isoform, sequence (Q13639 1-387 isoform Q13639-2): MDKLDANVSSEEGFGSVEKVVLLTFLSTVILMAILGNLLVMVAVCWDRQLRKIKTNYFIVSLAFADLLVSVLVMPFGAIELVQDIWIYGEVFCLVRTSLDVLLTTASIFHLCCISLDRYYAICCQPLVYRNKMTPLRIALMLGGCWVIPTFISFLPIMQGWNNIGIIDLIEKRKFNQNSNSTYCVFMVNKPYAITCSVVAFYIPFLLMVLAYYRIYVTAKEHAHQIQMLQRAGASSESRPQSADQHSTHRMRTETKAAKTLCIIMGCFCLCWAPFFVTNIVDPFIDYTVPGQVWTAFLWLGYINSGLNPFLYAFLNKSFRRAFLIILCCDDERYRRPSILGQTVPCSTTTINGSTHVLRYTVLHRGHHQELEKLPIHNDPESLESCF

Structure (SMILES)	depressant effects on respiratory neurons (respiratory neurons [1]; 100 μg/kg, rats)	morphine-induced suppression of respiratory neuronal activity (respiratory neurons [1])	phrenic nerve discharges (respiratory neurons [2]; anesthetized cats, higher doses 50 and 90 μg/kg)	phrenic nerve discharges (respiratory neurons [2]; anesthetized cats, lower doses 10-50 μg/kg)	pentobarbital- and ketamine-induced suppression of respiratory neurons (respiratory neurons [2]; cats)	phrenic nerve discharges (respiratory neurons [2]; cats, 20 μg/kg intravenously)	respiratory frequency or ventilation rate (hypoxic goats)	receptor activity (5-HT4a receptor isoform)	receptor activity (5-HT7 receptor)
CCCN(CCC)C1CCc2cccc(O)c2C1 (racemic) [8-OH-DPAT, 8-hydroxy-2-(di-n-propylamino)tetralin]	no depressant effects on rat respiratory neurons	reversed the morphine-induced suppression of neuronal activity	suppressed phrenic nerve discharges	increased the frequency of phrenic nerve discharges	reverse pentobarbital- and ketamine-induced suppression of respiratory neurons	phrenic nerve discharges were decreased	did not increase respiratory frequency or ventilation rate	–	–
COc1cc(N)c(Cl)cc1C(=O)NC1CN2CCC1CC2.Cl (racemic) [zacopride, 4-amino-N-1-azabicyclo[2.2.2] oct-3-yl-5-chloro-2-methoxybenzamide hydrochloride]	–	–	–	–	–	–	–	agonist of the 5-HT4a receptor isoform	–
O=C1CC2(CCCC2)CC(=O)N1CCCCN1CCN(c2ncccn2)CC1 [buspirone]	–	reversed the suppression	–	–	–	–	–	–	no effect on the 5-HT7 receptor
